Laboratory results taken from US9611256B2, “Alkyne-, azide- and triazole-containing flavonoids as modulators for multidrug resistance in cancers” (The Hong Kong Polytechnic University, priority 2012, dated 2017).
“And” between values parts separate entries of the source, which are not always exact repeats. Equal values may be shown once. Read-outs that look alike come from different tables or passages of the source. Values belong to the molecule of their own block, whether it stands above or below them.

How the values were obtained:
[1] = tested on: P-gp, MRP1 and BCRP transporters; experiment: Selectivity for ABC transporters, determined from % of reversion (Tables 1 and 2); format: cell-based, human; conditions: determined from % of reversion in Table 1 (>80% strongly, 79-50% moderately selective)
In short: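 Compounds are grouped as acting on one, two or all three of P-gp, MRP1 and BCRP. The basis is percent reversion: 79-50% means moderate selectivity, above 80% strong selectivity.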

[2] = target: T1, BCRP (Homo sapiens, UniProt Q9UNQ0); experiment: Reversal of BCRP-mediated topotecan resistance in HEK293/R2 cells (cell proliferation assay); conditions: triazole dimers, anti vs syn; cell line not given (Table 1)
T1 sequence (Q9UNQ0 1-655): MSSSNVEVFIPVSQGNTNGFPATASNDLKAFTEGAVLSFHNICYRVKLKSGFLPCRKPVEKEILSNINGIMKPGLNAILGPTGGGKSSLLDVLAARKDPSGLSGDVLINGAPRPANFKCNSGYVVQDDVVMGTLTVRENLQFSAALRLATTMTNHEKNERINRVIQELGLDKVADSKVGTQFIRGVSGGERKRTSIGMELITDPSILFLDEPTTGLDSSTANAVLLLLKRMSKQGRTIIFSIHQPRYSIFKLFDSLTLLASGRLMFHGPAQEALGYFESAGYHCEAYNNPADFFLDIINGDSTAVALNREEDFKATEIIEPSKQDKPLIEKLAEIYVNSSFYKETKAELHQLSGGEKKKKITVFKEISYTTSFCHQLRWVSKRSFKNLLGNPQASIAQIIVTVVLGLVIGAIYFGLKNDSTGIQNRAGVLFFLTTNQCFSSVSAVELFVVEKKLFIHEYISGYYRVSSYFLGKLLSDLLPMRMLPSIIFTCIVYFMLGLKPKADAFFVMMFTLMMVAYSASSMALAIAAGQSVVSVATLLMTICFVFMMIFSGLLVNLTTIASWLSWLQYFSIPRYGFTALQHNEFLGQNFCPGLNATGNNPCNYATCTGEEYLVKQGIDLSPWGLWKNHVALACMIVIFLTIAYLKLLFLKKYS

[3] = target: T2, P-gp (Homo sapiens, UniProt P08183); conditions: mouse (L929 or Raw264.7) and human (LCC6MDR), 5 days
T2 sequence (P08183 whole entry): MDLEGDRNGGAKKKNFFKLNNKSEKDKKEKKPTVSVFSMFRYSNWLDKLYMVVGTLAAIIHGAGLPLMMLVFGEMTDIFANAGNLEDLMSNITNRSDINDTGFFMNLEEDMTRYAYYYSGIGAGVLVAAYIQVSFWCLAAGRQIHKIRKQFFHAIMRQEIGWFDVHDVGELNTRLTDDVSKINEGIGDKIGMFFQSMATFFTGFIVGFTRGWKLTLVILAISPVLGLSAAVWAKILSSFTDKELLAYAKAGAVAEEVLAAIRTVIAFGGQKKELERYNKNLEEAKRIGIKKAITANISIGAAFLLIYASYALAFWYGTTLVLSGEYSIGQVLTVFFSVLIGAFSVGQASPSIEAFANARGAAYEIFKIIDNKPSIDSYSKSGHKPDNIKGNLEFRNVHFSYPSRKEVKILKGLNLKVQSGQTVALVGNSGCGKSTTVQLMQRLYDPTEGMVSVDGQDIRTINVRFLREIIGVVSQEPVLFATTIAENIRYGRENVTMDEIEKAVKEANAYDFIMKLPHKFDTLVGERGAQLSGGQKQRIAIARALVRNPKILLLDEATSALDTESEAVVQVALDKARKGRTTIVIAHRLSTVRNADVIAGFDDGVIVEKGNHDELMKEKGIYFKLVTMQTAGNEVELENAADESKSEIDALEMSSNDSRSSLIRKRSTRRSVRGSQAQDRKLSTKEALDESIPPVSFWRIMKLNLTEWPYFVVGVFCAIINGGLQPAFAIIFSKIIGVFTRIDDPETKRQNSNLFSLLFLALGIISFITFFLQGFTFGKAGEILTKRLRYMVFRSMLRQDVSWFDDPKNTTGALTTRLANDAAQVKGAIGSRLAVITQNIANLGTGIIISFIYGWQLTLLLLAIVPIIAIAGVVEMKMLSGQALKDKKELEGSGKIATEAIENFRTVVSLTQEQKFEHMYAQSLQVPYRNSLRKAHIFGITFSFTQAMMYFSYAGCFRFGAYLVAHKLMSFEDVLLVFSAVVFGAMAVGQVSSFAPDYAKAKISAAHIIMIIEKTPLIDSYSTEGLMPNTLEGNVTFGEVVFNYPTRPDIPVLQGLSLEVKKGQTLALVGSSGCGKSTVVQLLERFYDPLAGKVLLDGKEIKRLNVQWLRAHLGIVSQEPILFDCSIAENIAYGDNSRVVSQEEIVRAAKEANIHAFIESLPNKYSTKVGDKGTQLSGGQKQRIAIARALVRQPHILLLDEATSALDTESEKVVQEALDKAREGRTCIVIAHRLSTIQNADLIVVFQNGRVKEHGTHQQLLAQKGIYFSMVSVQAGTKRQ

[4] = in vitro; conditions: mouse
[5] = target: T2, P-gp; experiment: cell-based
[6] = target: T3, MRP1 (Homo sapiens, UniProt P33527); experiment: Reversal of MRP1-mediated DOX resistance in 2008/MRP1 cells (cell proliferation assay); conditions: for DOX resistance of 2008/MRP1 Therapeutic index: (IC50 towards L929 or Raw264.7)/(EC50 for reversing drug resistance)
T3 sequence (P33527 whole entry): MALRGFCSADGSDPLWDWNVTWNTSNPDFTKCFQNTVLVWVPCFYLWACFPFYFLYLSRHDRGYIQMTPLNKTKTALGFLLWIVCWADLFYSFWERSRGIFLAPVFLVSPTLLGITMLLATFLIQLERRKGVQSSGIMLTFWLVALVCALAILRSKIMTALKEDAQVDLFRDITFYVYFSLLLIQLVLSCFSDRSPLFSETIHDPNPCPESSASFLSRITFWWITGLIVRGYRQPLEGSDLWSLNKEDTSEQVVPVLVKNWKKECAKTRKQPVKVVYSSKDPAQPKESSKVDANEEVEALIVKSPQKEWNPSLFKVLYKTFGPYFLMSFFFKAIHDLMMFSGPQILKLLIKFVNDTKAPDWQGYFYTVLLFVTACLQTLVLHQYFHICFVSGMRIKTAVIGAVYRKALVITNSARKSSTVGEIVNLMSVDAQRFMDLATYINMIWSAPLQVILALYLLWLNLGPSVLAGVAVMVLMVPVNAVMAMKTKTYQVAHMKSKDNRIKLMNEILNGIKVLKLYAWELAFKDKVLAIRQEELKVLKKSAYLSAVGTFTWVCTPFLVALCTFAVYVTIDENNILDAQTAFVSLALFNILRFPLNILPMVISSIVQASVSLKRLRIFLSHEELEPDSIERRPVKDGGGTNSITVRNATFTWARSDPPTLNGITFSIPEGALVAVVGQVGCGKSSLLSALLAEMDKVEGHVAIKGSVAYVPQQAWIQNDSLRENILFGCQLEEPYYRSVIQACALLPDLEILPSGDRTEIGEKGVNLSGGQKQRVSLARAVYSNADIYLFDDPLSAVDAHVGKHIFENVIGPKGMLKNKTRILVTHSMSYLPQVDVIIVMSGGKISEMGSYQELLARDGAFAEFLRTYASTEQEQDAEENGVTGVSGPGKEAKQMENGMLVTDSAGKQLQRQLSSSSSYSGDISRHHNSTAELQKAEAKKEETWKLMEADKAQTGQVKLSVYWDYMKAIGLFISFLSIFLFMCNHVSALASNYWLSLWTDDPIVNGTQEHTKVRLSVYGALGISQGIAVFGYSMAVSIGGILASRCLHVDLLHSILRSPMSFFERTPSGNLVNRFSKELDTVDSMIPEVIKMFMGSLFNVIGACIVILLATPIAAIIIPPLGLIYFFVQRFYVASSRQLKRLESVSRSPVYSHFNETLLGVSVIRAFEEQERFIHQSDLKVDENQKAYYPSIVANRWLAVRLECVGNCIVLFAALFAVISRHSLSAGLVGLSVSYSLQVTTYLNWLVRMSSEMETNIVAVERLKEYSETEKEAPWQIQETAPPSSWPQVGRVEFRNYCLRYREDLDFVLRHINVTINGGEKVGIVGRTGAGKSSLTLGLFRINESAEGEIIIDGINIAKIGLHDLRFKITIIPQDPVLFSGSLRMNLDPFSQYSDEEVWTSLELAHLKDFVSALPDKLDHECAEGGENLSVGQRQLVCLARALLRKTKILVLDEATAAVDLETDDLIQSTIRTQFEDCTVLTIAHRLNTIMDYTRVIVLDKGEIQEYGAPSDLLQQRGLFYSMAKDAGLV

[7] = target: T1, BCRP; experiment: Reversal of BCRP-mediated topotecan resistance in MCF7-MX100 cells (cell proliferation assay); conditions: (IC50 towards L929 or Raw264.7)/(EC50 for reversing drug resistance)
[8] = target: T3, MRP1; experiment: Reversal of MRP1-mediated vincristine resistance in 2008/MRP1 cells (cell proliferation assay); conditions: (IC50 towards L929 or Raw264.7)/(EC50 for reversing drug resistance)
[9] = tested on: 2008/P cells; experiment: Cell proliferation assay, 2008/P; format: cell-based; conditions: Homo sapiens; without modulator; read-out: IC50 of anticancer drug, parental 2008/P cells
[10] = tested on: 2008/MRP1; experiment: Cell proliferation assay, 2008/MRP1
[11] = tested on: L929 cells; experiment: Cytotoxicity assay (MTS) towards L929 normal fibroblasts; conditions: read-out: Cytotoxicity (IC50, μM) L929; L929 mouse fibroblasts
[12] = as above; conditions: mouse, L929 fibroblasts
[13] = tested on: LCC6MDR; experiment: Cell proliferation assay without modulator, LCC6MDR; format: cell-based, human
[14] = tested on: LCC6 cells; experiment: Cell proliferation assay without modulator, LCC6; format: cell-based; conditions: Homo sapiens, LCC-6, read-out: IC50 of anticancer drug, parental LCC6 cells
[15] = tested on: HEK293/R2; experiment: Cell proliferation assay without modulator, HEK293/R2; format: cell-based; conditions: Homo sapiens, read-out: IC50 of anticancer drug, HEK293/R2
[16] = tested on: HEK293/pcDNA3.1 cell line; experiment: Cell proliferation assay without modulator, HEK293/pcDNA3.1; format: cell-based; conditions: Homo sapiens, read-out: IC50 of anticancer drug, wild type HEK293/pcDNA3.1
[17] = tested on: MCF7-MX100; experiment: Cell proliferation assay without modulator, MCF7-MX100; format: cell-based, human
[18] = tested on: MCF7; experiment: Cell proliferation assay without modulator, MCF7; format: cell-based; conditions: Homo sapiens, read-out: IC50 of anticancer drug, wild type MCF7

Structure (SMILES): Cc1ccc2oc(-c3ccc(OCCCCc4cn(CCOCCOCCOc5ccc(-c6cc(=O)c7ccccc7o6)cc5)nn4)cc3)cc(=O)c2c1 [Ac5Az2, 6-Methyl-2-(4-(4-(1-(2-(2-(2-(4-(4-oxo-4H-chromen-2-yl)phenoxy)ethoxy)ethoxy)ethyl)-1H-1,2,3-triazol-4-yl)butoxy)phenyl)-4H-chromen-4-one]
Selectivity for ABC transporters (P-gp, MRP1, BCRP) [1]: mono-MRP1 selectivity | Relative fold (RF), BCRP-modulating activity [2]: 13.5

Structure (SMILES): Cc1ccc2oc(-c3ccc(OCCCCc4cn(CCOCCOCCOc5ccc6c(=O)cc(-c7ccccc7)oc6c5)nn4)cc3)cc(=O)c2c1 [Ac5Az12, 6-Methyl-2-(4-(4-(1-(2-(2-(2-((4-oxo-2-phenyl-4H-chromen-7-yl)oxy)ethoxy)ethoxy)ethyl)-1H-1,2,3-triazol-4-yl)butoxy)phenyl)-4H-chromen-4-one]
Selectivity for ABC transporters (P-gp, MRP1, BCRP) [1]: mono-BCRP selectivity | Paclitaxel resistance of LCC6MDR Therapeutic index [3]: >709.2 | IC50 at 5 days [4]: > 100000 nM | EC50 [5]: 141 ± 1 nM | DOX resistance of 2008/MRP1 Therapeutic index [6]: >759.3 | Topotecan resistance of MCF7-MX100 Therapeutic index [7]: >1600.0 | Vincristine resistance of 2008/MRP1 Therapeutic index [8]: >1081.1

IC50 at 5 days [4]: > 50000 nM | EC50 [5]: 190 nM
Structure (SMILES): Cc1ccc2oc(-c3ccc(OCCOCCOCCn4cc(CCCCOc5ccc6c(=O)cc(-c7ccccc7)oc6c5)nn4)cc3)cc(=O)c2c1 [Ac12Az3, 6-Methyl-2-(4-(2-(2-(2-(4-(4-((4-oxo-2-phenyl-4H-chromen-7-yl)oxy)butyl)-1H-1,2,3-triazol-1-yl)ethoxy)ethoxy)ethoxy)phenyl)-4H-chromen-4-one]
Selectivity for ABC transporters (P-gp, MRP1, BCRP) [1]: multi-selectivity towards P-gp, MRP1 and BCRP transporters | Paclitaxel resistance of LCC6MDR Therapeutic index [3]: >263.2 | DOX resistance of 2008/MRP1 Therapeutic index [6]: >333.8 | Vincristine resistance of 2008/MRP1 Therapeutic index [8]: >613.5

Selectivity for ABC transporters (P-gp, MRP1, BCRP) [1]: Pgp- and BCRP-dual selectivity | IC50 at 5 days [4]: > 100000 nM | EC50 [5]: 330 nM
Structure (SMILES): O=c1cc(-c2ccccc2)oc2cc(OCCCCc3cn(CCOCCOc4ccc(-c5oc6ccccc6c(=O)c5OCc5ccccc5)cc4)nn3)ccc12 [Ac12Az10, 3-(Benzyloxy)-2-(4-(2-(2-(4-(4-((4-oxo-2-phenyl-4H-chromen-7-yl)oxy)butyl)-1H-1,2,3-triazol-1-yl)ethoxy)ethoxy)phenyl)-4H-chromen-4-one]
Paclitaxel resistance of LCC6MDR Therapeutic index [3]: >303.0 | Topotecan resistance of MCF7-MX100 Therapeutic index [7]: >2924.0

Selectivity for ABC transporters (P-gp, MRP1, BCRP) [1]: Pgp- and BCRP-dual selectivity | IC50 at 5 days [4]: > 100000 nM | EC50 [5]: 340 nM
Structure (SMILES): O=c1cc(-c2ccccc2)oc2cc(OCCOCc3cn(CCOCCOc4ccc(-c5oc6ccccc6c(=O)c5OCc5ccccc5)cc4)nn3)ccc12 [Ac13Az10, 3-(Benzyloxy)-2-(4-(2-(2-(4-((2-((4-oxo-2-phenyl-4H-chromen-7-yl)oxy)ethoxy)methyl)-1H-1,2,3-triazol-1-yl)ethoxy)ethoxy)phenyl)-4H-chromen-4-one]
Paclitaxel resistance of LCC6MDR Therapeutic index [3]: >294.1 | Topotecan resistance of MCF7-MX100 Therapeutic index [7]: >845.3

Structure (SMILES): COc1cccc2c1C(=O)c1c(O)c3c(c(O)c1C2=O)C[C@@](O)(C(=O)CO)C[C@@H]3O[C@H]1C[C@H](N)[C@H](O)[C@H](C)O1 [DOX]
IC50 [9]: 50.1 ± 3.9 nM | IC50 ([10]; Homo sapiens, 2008/MRP1, read-out: IC50 of anticancer drug, 2008/MRP1, without modulator): 420 ± 17.4 nM | IC50 ([10]; read-out: IC50 of anticancer drug, 2008/MRP1, without modulator): 413 nM | fold more resistance of 2008/MRP1 than parental 2008/P ([10]; without modulator): about 8.4 fold

Structure (SMILES): COc1ccc2c3c([nH]c2c1)[C@H](CC(C)C)N1C(=O)[C@H](CCC(=O)OC(C)(C)C)NC(=O)[C@@H]1C3 [Ko143]
IC50 [11]: 29 µM and 29.2 µM

Structure (SMILES): C/C=C/C[C@@H](C)C(=O)[C@H]1C(=O)N[C@@H](C(C)C)C(=O)N(C)CC(=O)N(C)[C@@H](CC(C)C)C(=O)N[C@@H](C(C)C)C(=O)N(C)[C@@H](CC(C)C)C(=O)N[C@@H](C)C(=O)N[C@H](C)C(=O)N(C)[C@@H](CC(C)C)C(=O)N(C)[C@@H](CC(C)C)C(=O)N(C)[C@@H](C(C)C)C(=O)N1C [PSC833]
IC50 at 5 days [12]: > 100000 nM

Structure (SMILES): CC(=O)O[C@H]1C(=O)[C@@]2(C)[C@H]([C@H](OC(=O)c3ccccc3)[C@]3(O)C[C@H](OC(=O)[C@H](O)[C@@H](NC(=O)c4ccccc4)c4ccccc4)C(C)=C1C3(C)C)[C@]1(OC(C)=O)CO[C@@H]1C[C@@H]2O [paclitaxel]
fold greater resistance of LCC6MDR than parental LCC6 cells [13]: about 99.2 fold | IC50 ([13]; Homo sapiens, LCC6MDR, read-out: IC50 of anticancer drug, LCC6MDR): 159 ± 6.1 nM | IC50 [14]: 1.6 ± 0.3 nM

Structure (SMILES): Cc1ccc2oc(-c3ccc(OCCCCc4cnnn4CCOCCOc4ccc(-c5cc(=O)c6ccccc6o5)cc4)cc3)cc(=O)c2c1 [syn-Ac5Az1, 6-Methyl-2-(4-(4-(1-(2-(2-(4-(4-oxo-4H-chromen-2-yl)phenoxy)ethoxy)ethyl)-1H-1,2,3-triazol-5-yl)butoxy)phenyl)-4H-chromen-4-one]
Relative fold (RF), BCRP-modulating activity [2]: 11.6

Structure (SMILES): Cc1ccc2oc(-c3ccc(OCCCCc4cnnn4CCOCCOCCOc4ccc(-c5cc(=O)c6ccccc6o5)cc4)cc3)cc(=O)c2c1 [syn-Ac5Az2, 6-Methyl-2-(4-(4-(1-(2-(2-(2-(4-(4-oxo-4H-chromen-2-yl)phenoxy)ethoxy)ethoxy)ethyl)-1H-1,2,3-triazol-5-yl)butoxy)phenyl)-4H-chromen-4-one]
MRP1 inhibitory activity of syn-isomer compared with anti-isomer ([6]; syn vs anti triazole regioisomer): poorer MRP1 inhibitory activity than the anti-isomer Ac5Az2 | Relative fold (RF), BCRP-modulating activity [2]: 9.3

IC50 ([17]; Homo sapiens, MCF7/MX100, read-out: IC50 of anticancer drug, MCF7-MX100): 33400 ± 2100 nM | IC50 [18]: 320 ± 70 nM
Structure (SMILES): CC[C@@]1(O)C(=O)OCc2c1cc1n(c2=O)Cc2cc3c(CN(C)C)c(O)ccc3nc2-1 [topotecan]
IC50 [15]: 508 ± 31.1 nM | IC50 [16]: 15.8 ± 1.5 nM | fold more resistance of MCF7-MX100 than wild type MCF7 [17]: about 104.4 fold

Structure (SMILES): CC[C@]1(O)C[C@H]2CN(CCc3c([nH]c4ccccc34)[C@@](C(=O)OC)(c3cc4c(cc3OC)N(C=O)[C@H]3[C@@](O)(C(=O)OC)[C@H](OC(C)=O)[C@]5(CC)C=CCN6CC[C@]43[C@@H]65)C2)C1 [vincristine]
IC50 ([10]; Homo sapiens, 2008/MRP1, read-out: IC50 of anticancer drug, 2008/MRP1): 123 nM | fold more resistance of 2008/MRP1 than parental 2008/P ([10]; without modulator): about 2.4 fold
